Results: US20260158017A1, “KIF18A INHIBITOR” (WIGEN BIOMEDICINE TECHNOLOGY (SHANGHAI) CO., LTD., priority 2021, published 2026)

These compounds were tested against T1, Recombinant human KIF18A (1-467His-tagged) protein (Homo sapiens, UniProt Q8NI77) (assay: KIF18A enzyme assay (microtubule-stimulated ATPase activity, ADP-Glo)). Details: 30 nM KIF18A, 75 μM ATP, 30 μg/mL pig microtubules; read-out: Inhibitory activity against KIF18A IC50.
T1 construct: Recombinant human KIF18A (1-467His-tagged) protein; His; made in house
T1 sequence (Q8NI77 1-467): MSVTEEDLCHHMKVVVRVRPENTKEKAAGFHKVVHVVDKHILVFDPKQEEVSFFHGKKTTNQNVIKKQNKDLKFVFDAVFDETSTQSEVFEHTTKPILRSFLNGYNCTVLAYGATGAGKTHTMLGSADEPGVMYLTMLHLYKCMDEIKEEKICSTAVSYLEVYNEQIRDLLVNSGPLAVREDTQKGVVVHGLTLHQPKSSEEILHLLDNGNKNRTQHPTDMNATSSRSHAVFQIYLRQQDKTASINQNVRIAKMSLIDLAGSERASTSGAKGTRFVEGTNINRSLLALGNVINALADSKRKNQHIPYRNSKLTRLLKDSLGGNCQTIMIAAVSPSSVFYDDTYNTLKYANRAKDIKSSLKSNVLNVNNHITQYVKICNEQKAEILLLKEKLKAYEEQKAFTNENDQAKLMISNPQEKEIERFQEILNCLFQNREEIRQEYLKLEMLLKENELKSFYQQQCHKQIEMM
T1 sequence (P02550 whole entry partner): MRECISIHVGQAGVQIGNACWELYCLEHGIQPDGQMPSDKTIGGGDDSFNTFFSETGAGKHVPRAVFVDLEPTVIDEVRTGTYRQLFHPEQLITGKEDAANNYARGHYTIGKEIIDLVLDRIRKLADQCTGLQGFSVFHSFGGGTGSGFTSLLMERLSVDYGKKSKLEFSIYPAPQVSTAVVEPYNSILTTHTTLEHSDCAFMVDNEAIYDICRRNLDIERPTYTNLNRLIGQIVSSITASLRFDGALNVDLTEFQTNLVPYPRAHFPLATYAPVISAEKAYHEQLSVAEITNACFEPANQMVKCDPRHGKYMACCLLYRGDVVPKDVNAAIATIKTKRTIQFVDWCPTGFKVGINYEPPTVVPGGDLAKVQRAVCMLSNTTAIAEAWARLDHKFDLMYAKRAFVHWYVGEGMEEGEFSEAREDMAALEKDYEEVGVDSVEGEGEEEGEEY
T1 sequence (P02554 whole entry partner): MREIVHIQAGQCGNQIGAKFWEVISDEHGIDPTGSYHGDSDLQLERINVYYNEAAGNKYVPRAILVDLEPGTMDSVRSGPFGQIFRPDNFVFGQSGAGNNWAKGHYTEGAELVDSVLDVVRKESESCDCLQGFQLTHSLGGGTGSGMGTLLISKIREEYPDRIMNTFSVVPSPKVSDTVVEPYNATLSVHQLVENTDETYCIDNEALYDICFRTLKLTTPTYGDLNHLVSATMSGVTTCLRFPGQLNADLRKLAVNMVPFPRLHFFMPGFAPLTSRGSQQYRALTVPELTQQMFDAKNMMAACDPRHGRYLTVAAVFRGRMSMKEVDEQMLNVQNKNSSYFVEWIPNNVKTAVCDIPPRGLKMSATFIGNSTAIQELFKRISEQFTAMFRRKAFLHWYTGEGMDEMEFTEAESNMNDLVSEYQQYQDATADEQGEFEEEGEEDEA
Type: biochemical
Procedure, shortened: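 Buffer 15 mM Tris pH 7.5, 10 mM MgCl2, 0.01% Pluronic F-68, 1 μM paclitaxel, 30 μg/mL pig microtubules; reactions at room temperature. IC50 from inhibition relative to DMSO.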

| Compound | IC50 [nM] |
| --- | --- |
| COc1ccc(NC(=O)c2ccc(NS(=O)(=O)[C@H](C)CO)cc2N2CCC3(CC2)CC3)nc1N1CCC(F)(F)CC1 [Compound 270] | ≤ 100 |
| C[C@H](CO)NS(=O)(=O)c1cc(N2CCC3(CC2)CC3)c(C(=O)Nc2ccc([N+](=O)[O-])c(N3CCO[C@H](C)C3)c2)cn1 [Compound 128] | ≤ 100 |
| COc1ccc(NC(=O)c2ccc(S(=O)(=O)NCCO)cc2N2CCC3(CC2)CC3)nc1N1CC(F)(F)C1 [Compound 276] | ≤ 100 |
| C[C@H]1CN(c2cc(NC(=O)c3ccc(NS(=O)(=O)CCO)cc3N3CCC4(CC3)CC4)ccc2OCF)CCO1 [Compound 387] | ≤ 100 |
| C[C@H](CO)NS(=O)(=O)c1ccc(C(=O)Nc2ccc(OCF)c(N3CCC(F)(F)CC3)c2)c(N2CCC3(CC2)CC3)c1 [Compound 414] | ≤ 100 |
| C[C@H]1CN(c2nc(C(=O)Nc3cnc(NS(=O)(=O)CCO)cc3N3CCC4(CC3)CC4)ccc2[N+](=O)[O-])CCO1 [Compound 227] | ≤ 100 |
| C[C@H](CO)NS(=O)(=O)c1ccc(C(=O)Nc2ccc([N+](=O)[O-])c(N3CCC(F)(F)CC3)n2)c(N2CCC3(CC2)CC3)c1 [Compound 94] | ≤ 100 |
| O=C(Nc1ccc([N+](=O)[O-])c(OCCC(F)(F)F)c1)c1cnc(NS(=O)(=O)CCO)cc1N1CCC2(CC1)CC2 [Compound 101] | ≤ 100 |
| CC1(F)CCN(c2nc(C(=O)Nc3ccc(NS(=O)(=O)CCO)cc3N3CCC4(CC3)CC4)ccc2[N+](=O)[O-])C1 (stereo not shown) [Compound 168] | ≤ 100 |
| C[C@@H]1CN(c2cc(NC(=O)c3cnc(NS(=O)(=O)[C@@H](C)CO)cc3N3CCC4(CC3)CC4)ccc2[N+](=O)[O-])CCO1 [Compound 111] | ≤ 100 |
| COc1ccc(C(=O)Nc2cnc(NS(=O)(=O)[C@@H](C)CO)cc2N2CCC3(CC2)CC3)nc1N1CCC(F)(F)CC1 [Compound 365] | ≤ 100 |
| CSc1ccc(NC(=O)c2ccc(NS(=O)(=O)CCO)cc2N2CCC3(CC2)CC3)cc1N1CCOCC1 [Compound 588] | ≤ 100 |
| C[C@@H](CO)NS(=O)(=O)c1cc(N2CCC3(CC2)CC3)c(C(=O)Nc2ccc(OCF)c(N3CCC(F)(F)CC3)c2)cn1 [Compound 477] | ≤ 100 |
| COc1ccc(NC(=O)c2cnc(NS(=O)(=O)CCO)cc2N2CCC3(CC2)CC3)nc1N1CCOCC1 [Compound 300] | ≤ 100 |
| C[C@@H]1CN(c2cc(NC(=O)c3ccc(S(=O)(=O)NCCO)cc3N3CCC4(CC3)CC4)ccc2[N+](=O)[O-])CCO1 [Compound 18] | ≤ 100 |
| COc1ccc(C(=O)Nc2ccc(NS(=O)(=O)CCO)cc2N2CCC3(CC2)CC3)nc1N1CCOCC1 [Compound 332] | ≤ 100 |

Other lines, results leading:

| IC50 [nM] | Compound |
| --- | --- |
| ≤ 100 | CSc1ccc(NC(=O)c2ccc(NS(=O)(=O)CCO)cc2N2CCC3(CC2)CC3)cc1N1CCO[C@@H](C)C1 [Compound 579] |
| ≤ 100 | COc1ccc(NC(=O)c2cnc(NS(=O)(=O)CCO)cc2N2CCC3(CC2)CC3)nc1OC1CCC1 [Compound 295] |
| ≤ 100 | O=C(Nc1ccc([N+](=O)[O-])c(OC2CCC2)n1)c1ccc(S(=O)(=O)NCCO)cc1N1CCC2(CC1)CC2 [Compound 87] |
| ≤ 100 | CSc1ccc(NC(=O)c2ccc(NS(=O)(=O)CCO)cc2N2CCC3(CC2)CC3)nc1N1CCC(C)(F)C1 (stereo not shown) [Compound 600] |
| ≤ 100 | O=C(Nc1ccc([N+](=O)[O-])c(N2CCOCC2)c1)c1ccc(S(=O)(=O)NCCO)cc1N1CCC2(CC1)CC2 [Compound 28] |
| ≤ 100 | O=C(Nc1ccc(OCF)c(N2CC(F)(F)C2)c1)c1ccc(S(=O)(=O)NCCO)cc1N1CCC2(CC1)CC2 [Compound 404] |
| ≤ 100 | COc1ccc(C(=O)Nc2ccc(S(=O)(=O)NCCO)cc2N2CCC3(CC2)CC3)nc1N1CCO[C@@H](C)C1 [Compound 339] |
| ≤ 100 | CSc1ccc(NC(=O)c2cnc(NS(=O)(=O)CCO)cc2N2CCC3(CC2)CC3)cc1N1CCC(F)CC1 [Compound 617] |
| ≤ 100 | CSc1ccc(NC(=O)c2ccc(NS(=O)(=O)[C@H](C)CO)cc2N2CCC3(CC2)CC3)cc1N1CCO[C@H](C)C1 [Compound 592] |
